Experimental data: patent publication US9085555B2, “Complement pathway modulators and uses thereof” (priority 2011, dated 2015)

Each compound was assayed against Factor D (Homo sapiens (Human), UniProt P00746) (assay: biochemical). Conditions: read-out: IC50.
Type: biochemical

Sequence of Factor D (P00746 26-253): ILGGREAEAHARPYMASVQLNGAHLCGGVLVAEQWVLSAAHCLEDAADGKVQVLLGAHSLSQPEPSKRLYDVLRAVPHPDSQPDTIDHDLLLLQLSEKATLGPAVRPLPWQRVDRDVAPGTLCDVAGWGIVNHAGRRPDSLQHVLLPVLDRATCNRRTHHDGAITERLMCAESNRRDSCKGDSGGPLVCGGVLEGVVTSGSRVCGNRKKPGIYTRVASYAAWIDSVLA

First: Cc1cc2c(C(N)=O)nn(CC(=O)N3[C@@H]4C[C@@H]4C[C@H]3C(=O)Nc3cccc(OC(F)(F)F)c3F)c2c(C)n1 [Example 717, 1-{2-[(1R,3S,5R)-3-(2-Fluoro-3-trifluoromethoxy-phenylcarbamoyl)-2-aza-bicyclo[3.1.0]hex-2-yl]-2-oxo-ethyl}-5,7-dimethyl-1H-pyrazolo [3,4-c]pyridine-3-carboxylic acid amide]
Second: Cc1cc2c(C(N)=O)nn(CC(=O)N3[C@@H]4C[C@@H]4C[C@H]3C(=O)Nc3cccc(OC(F)(F)F)c3F)c2cn1 [Example 723, 1-{2-[(1R,3S,5R)-3-(2-Fluoro-3-trifluoromethoxy-phenylcarbamoyl)-2-aza-bicyclo[3.1.0]hex-2-yl]-2-oxo-ethyl}-5-methyl-1H-pyrazolo[3,4-c]pyridine-3-carboxylic acid amide]
The IC50 of the first is 2.9-fold lower: 31 nM for the first, 90 nM for the second.

`CC(=O)c1nn(CC(=O)N2[C@@H]3C[C@@H]3C[C@H]2C(=O)Nc2cccc(OC(F)(F)F)c2F)c2ccc(OCc3ncccn3)cc12` [Example 718, (1R,3S,5R)-2-{2-[3-Acetyl-5-(pyrimidin-2-ylmethoxy)-indazol-1-yl]-acetyl}-2-aza-bicyclo[3.1.0]hexane-3-carboxylic acid (2-fluoro-3-trifluoromethoxy-phenyl)-amide] and `CC(=O)c1nn(CC(=O)N2[C@@H]3C[C@@H]3C[C@H]2C(=O)Nc2cccc(OC(F)(F)F)c2F)c2cc(C(=O)O)ccc12` [Example 725] are within 1.5-fold of each other in IC50: 24 nM for the first, 18 nM for the second.

Going from `NC(=O)c1nn(CC(=O)N2[C@@H]3C[C@@H]3C[C@H]2C(=O)Nc2cccc(OC(F)(F)F)c2F)c2cnc(C3CC3)cc12` [Example 719, 5-Cyclopropyl-1-(2-((1R,3S,5R)-3-((2-fluoro-3-(trifluoromethoxy)phenyl)carbamoyl)-2-azabicyclo [3.1.0]hexan-2-yl)-2-oxoethyl)-1H-pyrazolo[3,4-c]pyridine-3-carboxamide] to `NC(=O)c1nn(CC(=O)N2[C@@H]3C[C@@H]3C[C@H]2C(=O)Nc2cccc(OC(F)(F)F)c2F)c2cnccc12` [Example 724], the IC50 rises from 13 nM to 61 nM (4.7-fold). The first is the more potent here.

`NC(=O)c1nn(CC(=O)N2[C@@H]3C[C@@H]3C[C@H]2C(=O)Nc2cccc(OC(F)(F)F)c2F)c2nnccc12` [Example 720, 1-(2-((1R,3S,5R)-3-((2-Fluoro-3-(trifluoromethoxy)phenyl)carbamoyl)-2-azabicyclo[3.1.0]hexan-2-yl)-2-oxoethyl)-1H-pyrazolo[3,4-c] pyridazine-3-carboxamide] and `Cc1cc2c(C(N)=O)nn(CC(=O)N3[C@@H]4C[C@@H]4C[C@H]3C(=O)Nc3cccc(OC(F)(F)F)c3F)c2c[n+]1[O-]` [Example 726] are within 1.5-fold of each other in IC50: 140 nM for the first, 169 nM for the second.

Going from `NC(=O)c1nn(CC(=O)N2[C@@H]3C[C@@H]3C[C@H]2C(=O)Nc2cccc(-c3c(F)cccc3F)n2)c2cnccc12` [Example 721, 1-(2-{(1R,3S,5R)-3-[6-(2,6-Difluoro-phenyl)-pyridin-2-ylcarbamoyl]-2-aza-bicyclo[3.1.0]hex-2-yl}-2-oxo-ethyl)-1H-pyrazolo[3,4-c]pyridine-3-carboxamide] to `NC(=O)c1nn(CC(=O)N2[C@@H]3C[C@@H]3C[C@H]2C(=O)Nc2cccc(-c3c(F)cccc3Cl)c2)c2cnccc12` [Example 722, 1-(2-((1R,3S,5R)-3-(2′-Chloro-6′-fluorobiphenyl-3-ylcarbamoyl)-2-azabicyclo[3.1.0]hexan-2-yl)-2-oxoethyl)-1H-pyrazolo[3,4-c] pyridine-3-carboxamide], the IC50 falls from 98 nM to 20 nM (4.9-fold). The second is the more potent here.

Going from `NC(=O)c1nn(CC(=O)N2[C@@H]3C[C@@H]3C[C@H]2C(=O)Nc2cccc(Br)n2)c2cnccc12` [Example 728, 1-{2-[(1R,3S,5R)-3-(6-bromo-pyridin-2-ylcarbamoyl)-2-aza-bicyclo[3.1.0]hex-2-yl]-2-oxo-ethyl}-1H-pyrazolo[3,4-c] pyridine-3-carboxylic acid amide] to `CC(=O)c1nn(CC(=O)N2[C@@H]3C[C@@H]3C[C@H]2C(=O)Nc2cccc(Br)n2)c2cnccc12` [Example 736, (1R,3S,5R)-2-[2-(3-Acetyl-pyrazolo[3,4-c]pyridin-1-yl)-acetyl]-2-aza-bicyclo[3.1.0] hexane-3-carboxylic acid (6-bromo-pyridin-2-yl)-amide], the IC50 rises from 8 nM to 18 nM (2.2-fold). The first is the more potent here.

First: NC(=O)c1nn(CC(=O)N2[C@@H]3C[C@@H]3C[C@H]2C(=O)Nc2cccc(OC(F)F)c2F)c2ccccc12 [Example 729, 1-{2-[(1R,3S,5R)-3-(3-Difluoromethoxy-2-fluoro-phenylcarbamoyl)-2-aza-bicyclo[3.1.0]hex-2-yl]-2-oxo-ethyl}-1H-indazole-3-carboxylic acid amide]
Second: NC(=O)c1nn(CC(=O)N2[C@@H]3C[C@@H]3C[C@H]2C(=O)Nc2cccc(OC(F)F)c2F)c2cnccc12 [Example 730, 1-{2-[(1R,3S,5R)-3-(3-Difluoromethoxy-2-fluoro-phenylcarbamoyl)-2-aza-bicyclo[3.1.0]hex-2-yl]-2-oxo-ethyl}-1H-pyrazolo[3,4-c] pyridine-3-carboxylic acid amide]
The IC50 of the first is 2.3-fold lower: 62 nM for the first, 143 nM for the second.

`NC(=O)c1nn(CC(=O)N2[C@@H]3C[C@@H]3C[C@H]2C(=O)Nc2cccc(Cl)c2F)c2ccccc12` [Example 731, 1-{2-[(1R,3S,5R)-3-(3-Chloro-2-fluoro-phenylcarbamoyl)-2-aza-bicyclo[3.1.0]hex-2-yl]-2-oxo-ethyl}-1H-indazole-3-carboxylic acid amide] and `NC(=O)c1nn(CC(=O)N2[C@@H]3C[C@@H]3C[C@H]2C(=O)Nc2cccc(C(F)(F)F)n2)c2cnccc12` [Example 732, 1-{2-Oxo-2-[(1R,3S,5R)-3-(6-trifluoromethyl-pyridin-2-ylcarbamoyl)-2-aza-bicyclo [3.1.0]hex-2-yl]-ethyl}-1H-pyrazolo[3,4-c]pyridine-3-carboxylic acid amide] are within 1.5-fold of each other in IC50: 53 nM for the first, 44 nM for the second.

First: CC(=O)c1nn(CC(=O)N2[C@@H]3C[C@@H]3C[C@H]2C(=O)Nc2cccc(C(F)(F)F)n2)c2cnccc12 [Example 733, (1R,3S,5R)-2-[2-(3-Acetyl-pyrazolo[3,4-c]pyridin-1-yl)-acetyl]-2-aza-bicyclo[3.1.0] hexane-3-carboxylic acid (6-trifluoromethyl-pyridin-2-yl)-amide]
Second: Cc1cc2c(C(N)=O)nn(CC(=O)N3[C@@H]4C[C@@H]4C[C@H]3C(=O)Nc3cccc(Br)n3)c2cn1 [Example 734, 1-{2-[(1R,3S,5R)-3-(6-Bromo-pyridin-2-ylcarbamoyl)-2-aza-bicyclo[3.1.0]hex-2-yl]-2-oxo-ethyl}-5-methyl-1H-pyrazolo [3,4-c]pyridine-3-carboxylic acid amide]
The IC50 of the first is 6.2-fold higher: 25 nM for the first, 4 nM for the second.

First: CCc1cc2c(C(N)=O)nn(CC(=O)N3[C@@H]4C[C@@H]4C[C@H]3C(=O)Nc3cccc(Br)n3)c2cn1 [Example 735, 1-{2-[(1R,3S,5R)-3-(6-Bromo-pyridin-2-ylcarbamoyl)-2-aza-bicyclo[3.1.0]hex-2-yl]-2-oxo-ethyl}-5-ethyl-1H-pyrazolo[3,4-c]pyridine-3-carboxylic acid amide]
Second: C[C@@]12C[C@@H](C(=O)Nc3cccc(OC(F)(F)F)c3F)N(C(=O)Cn3nc(C(N)=O)c4ccncc43)[C@@H]1C2 [Example 738, 1-{2-[(1R,3S,5R)-3-(2-Fluoro-3-trifluoromethoxy-phenylcarbamoyl)-5-methyl-2-aza-bicyclo[3.1.0]hex-2-yl]-2-oxo-ethyl}-1H-pyrazolo[3,4-c] pyridine-3-carboxylic acid amide]
The IC50 of the first is 31-fold lower: 3 nM for the first, 93 nM for the second.
